Earlier results on one compound are cited in patent publication US20250339366A1, “AN ORODISPERSIBLE TABLET OF RIVAROXABAN” (INTAS PHARMACEUTICALS LTD., priority 2022, published 2025).

Molecules are shown by their SMILES.

`O=C(NC[C@H]1CN(c2ccc(N3CCOCC3=O)cc2)C(=O)O1)c1ccc(Cl)s1` [Rivaroxaban, 5-Chloro-N-({(5S)-2-oxo-3-[4-(3-oxo-4-morpholinyl)phenyl]-1,3-oxzolidin-5-yl}methyl)-2-thiophene-carboxamide]: the Solubility in water entry was “practically insoluble in water”.
